pIC50: −log10 of the molar value.
Legend:
recombinant Plk1 = recombinant Plk1 (Homo sapiens, UniProt P53350); assay: In Vitro Plk1 Enzyme Assay (SPA, GST-Cdc25C phosphorylation); type: biochemical; settings: ATP 64 nM, 90 minutes, read-out: IC50 (Plk1 enzyme inhibition)
[1] = tested on: human colon tumour cell line HT29; assay: Cellular Assay (phosphohistone H3 Ser10 mitotic marker, HT29); type: cell-based; settings: HT-29, 24 h, HT29 cells, read-out: IC50 (cellular assay, phosphohistone H3)

recombinant Plk1, sequence (P53350 whole entry): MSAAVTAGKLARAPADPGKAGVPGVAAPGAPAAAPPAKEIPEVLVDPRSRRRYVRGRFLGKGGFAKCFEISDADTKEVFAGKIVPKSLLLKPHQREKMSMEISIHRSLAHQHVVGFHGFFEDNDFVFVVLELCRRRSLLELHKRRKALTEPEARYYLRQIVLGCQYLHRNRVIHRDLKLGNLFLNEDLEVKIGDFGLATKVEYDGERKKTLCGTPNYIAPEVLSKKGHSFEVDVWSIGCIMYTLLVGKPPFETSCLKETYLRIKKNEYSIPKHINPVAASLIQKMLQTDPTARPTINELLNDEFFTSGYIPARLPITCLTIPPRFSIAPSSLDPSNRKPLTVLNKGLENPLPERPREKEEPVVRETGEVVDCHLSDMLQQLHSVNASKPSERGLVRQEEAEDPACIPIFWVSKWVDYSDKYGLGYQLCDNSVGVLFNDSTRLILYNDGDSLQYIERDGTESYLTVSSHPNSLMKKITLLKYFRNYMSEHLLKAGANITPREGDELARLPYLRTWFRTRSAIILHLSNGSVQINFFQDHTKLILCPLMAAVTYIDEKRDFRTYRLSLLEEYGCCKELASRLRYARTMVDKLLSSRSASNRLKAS

| Compound | pIC50 (recombinant Plk1) | pIC50 [1] |
| --- | --- | --- |
| CCc1cccc(Nc2ncc3c(n2)N(C2CCCC2)CCC(=O)N3C)c1 [Example 166, 6-cyclopentyl-9-[(3-ethylphenyl)amino]-2-methyl-2,6,8,10-tetrazabicyclo[5.4.0]undeca-8,10,12-trien-3-one] | > 4.00 |  |
| CN1C(=O)CCN(C2CCCC2)c2nc(Nc3ccccc3C(=O)c3ccccc3)ncc21 [Example 144, 9-[(2-benzoylphenyl)amino]-6-cyclopentyl-2-methyl-2,6,8,10-tetrazabicyclo[5.4.0]undeca-8,10,12-trien-3-one] | > 4.00 |  |
| CSc1ccccc1Nc1ncc2c(n1)N(C1CCCC1)CCC(=O)N2C [Example 141, 6-cyclopentyl-2-methyl-9-[(2-methylsulfanylphenyl)amino]-2,6,8,10-tetrazabicyclo[5.4.0]undeca-8,10,12-trien-3-one] | > 4.00 |  |
| CN1C(=O)CCN(C2CCCC2)c2nc(Nc3ccncc3)ncc21 [Example 268, 6-cyclopentyl-2-methyl-9-(pyridin-4-ylamino)-2,6,8,10-tetrazabicyclo[5.4.0]undeca-8,10,12-trien-3-one] | > 4.00 |  |
| CNS(=O)(=O)c1ccccc1Nc1ncc2c(n1)N(C1CCCC1)CCC(=O)N2C [Example 155, 2-[(6-cyclopentyl-2-methyl-3-oxo-2,6,8,10-tetrazabicyclo[5.4.0]undeca-8,10,12-trien-9-yl)amino]-N-methyl-benzenesulfonamide] | > 4.00 |  |
| CCOc1cccc(Nc2ncc3c(n2)N(C2CCCC2)CCC(=O)N3C)c1 [Example 162, 6-cyclopentyl-9-[(3-ethoxyphenyl)amino]-2-methyl-2,6,8,10-tetrazabicyclo[5.4.0]undeca-8,10,12-trien-3-one] | > 6.00 |  |
| COc1ccccc1Nc1ncc2c(n1)N(C1CCCC1)CCC(=O)N2C [Example 139, 6-cyclopentyl-9-[(2-methoxyphenyl)amino]-2-methyl-2,6,8,10-tetrazabicyclo[5.4.0]undeca-8,10,12-trien-3-one] | > 6.00 |  |
| CNC(=O)c1ccc(Nc2ncc3c(n2)N(C2CCCC2)CCC(=O)N3C)cc1 [Example 102, 4-[(6-cyclopentyl-2-methyl-3-oxo-2,6,8,10-tetrazabicyclo[5.4.0]undeca-8,10,12-trien-9-yl)amino]-N-methyl-benzamide] | > 6.52 |  |
| CN1C(=O)CCN(C2CCCC2)c2nc(Nc3ccccc3S(C)(=O)=O)ncc21 [Example 149, 6-cyclopentyl-2-methyl-9-[(2-methylsulfonylphenyl)amino]-2,6,8,10-tetrazabicyclo[5.4.0]undeca-8,10,12-trien-3-one] | > 4.00 |  |
| CN1C(=O)CCN(C2CCCC2)c2nc(Nc3ccccc3Br)ncc21 [Example 147, 9-[(2-bromophenyl)amino]-6-cyclopentyl-2-methyl-2,6,8,10-tetrazabicyclo[5.4.0]undeca-8,10,12-trien-3-one] | > 4.00 |  |
| CN1C(=O)CCN(C2CCCC2)c2nc(Nc3ccccc3Oc3ccc(C(C)(C)C)cc3)ncc21 [Example 153, 6-cyclopentyl-2-methyl-9-[[2-(4-tert-butylphenoxy)phenyl]amino]-2,6,8,10-tetrazabicyclo[5.4.0]undeca-8,10,12-trien-3-one] | > 4.00 |  |
| CN1C(=O)c2cccc(Nc3ncc4c(n3)N(C3CCCC3)CCC(=O)N4C)c2C1=O [Example 137, 4-[(6-cyclopentyl-2-methyl-3-oxo-2,6,8,10-tetrazabicyclo[5.4.0]undeca-8,10,12-trien-9-yl)amino]-2-methyl-isoindole-1,3-dione] | > 4.00 |  |
| CN1CCC(NC(=O)c2cc(F)c(Nc3ncc4c(n3)N(C3CCCCC3)CCC(=O)N4C)cc2Cl)CC1 [Example 411, 2-chloro-4-[(2-cyclohexyl-6-methyl-5-oxo-2,6,9,11-tetrazabicyclo[5.4.0]undeca-7,9,11-trien-10-yl)amino]-5-fluoro-N-(1-methyl-4-piperidyl)benzamide] |  | > 6.00 |
| CCN1CCC(NC(=O)c2cc(Cl)c(Nc3ncc4c(n3)N(C(C)C)CC(C)(C)C(=O)N4C)cc2F)CC1 [Example 290, 5-chloro-N-(1-ethyl-4-piperidyl)-2-fluoro-4-[(4,4,6-trimethyl-5-oxo-2-propan-2-yl-2,6,9,11-tetrazabicyclo[5.4.0]undeca-7,9,11-trien-10-yl)amino]benzamide] |  | > 6.00 |
| COc1cc(C(=O)NCC2(CN3CCCC3)CC2)c(F)cc1Nc1ncc2c(n1)N(C1CCCC1)CC1(CC1)C(=O)N2C [Example 405, 4-(9′-cyclopentyl-5′-methyl-6′-oxo-5′,6′,8′,9′-tetrahydrospiro[cyclopropane-1,7′-pyrimido[5,4-b][1,4]diazepine]-2′-ylamino)-2-fluoro-5-methoxy-N-[[1-(pyrrolidin-1-ylmethyl)cyclopropyl]methyl]benzamide] |  | > 6.00 |
| CN1C(=O)CCN(C2CCCCC2)c2nc(Nc3ccc(C(=O)NC4C[C@H]5CCC[C@@H](C4)N5C)cc3F)ncc21 (stereo partly drawn) [Example 417, 4-[(2-cyclohexyl-6-methyl-5-oxo-2,6,9,11-tetrazabicyclo[5.4.0]undeca-7,9,11-trien-10-yl)amino]-3-fluoro-N-[(1S,5R)-9-methyl-9-azabicyclo[3.3.1]non-7-yl]benzamide] |  | > 6.52 |
| CN1C(=O)C2(CC2)CN(C2CCCC2)c2nc(Nc3ccc(C(=O)NCCN4CCCC4)cc3Cl)ncc21 [Example 391, 3-chloro-4-(9′-cyclopentyl-5′-methyl-6′-oxo-5′,6′,8′,9′-tetrahydrospiro[cyclopropane-1,7′-pyrimido[5,4-b][1,4]diazepine]-2′-ylamino)-N-(2-pyrrolidin-1-ylethyl)benzamide] |  | > 6.52 |
| COc1cc(C(=O)NC2C[C@H]3CCC[C@@H](C2)N3C)c(F)cc1Nc1ncc2c(n1)N(C1CCCCC1)CC1(CC1)C(=O)N2C (stereo partly drawn) [Example 442, 4-(9′-cyclohexyl-5′-methyl-6′-oxo-5′,6′,8′,9′-tetrahydrospiro[cyclopropane-1,7′-pyrimido[5,4-b][1,4]diazepine]-2′-ylamino)-2-fluoro-5-methoxy-N-[(1S,5R)-9-methyl-9-azabicyclo[3.3.1]non-3-yl]benzamide] |  | > 6.52 |

Continued, values first:

| pIC50 (recombinant Plk1) | pIC50 [1] | Compound |
| --- | --- | --- |
| > 4.00 |  | CN1C(=O)CCN(C2CCCC2)c2nc(Nc3ccc(S(=O)(=O)NCCO)cc3)ncc21 [Example 117, 4-[(6-cyclopentyl-2-methyl-3-oxo-2,6,8,10-tetrazabicyclo[5.4.0]undeca-8,10,12-trien-9-yl)amino]-N-(2-hydroxyethyl)benzenesulfonamide] |
| > 4.00 |  | COCC(C)N1CCC(=O)Nc2cnc(Nc3ccc(C(=O)NC4CCN(C)CC4)cc3OC)nc21 (centres unmarked) [Example 258, 3-methoxy-4-[[6-(1-methoxypropan-2-yl)-3-oxo-2,6,8,10-tetrazabicyclo[5.4.0]undeca-7,9,11-trien-9-yl]amino]-N-(1-methyl-4-piperidyl)benzamide] |
| > 6.52 |  | CC(C)NC(=O)c1ccc(Nc2ncc3c(n2)N(C2CCCC2)CCC(=O)N3C)cc1 [Example 100, 4-[(6-cyclopentyl-2-methyl-3-oxo-2,6,8,10-tetrazabicyclo[5.4.0]undeca-8,10,12-trien-9-yl)amino]-N-propan-2-yl-benzamide] |
| > 4.00 |  | CN1C(=O)CCN(C2CCCC2)c2nc(Nc3ccccc3S(N)(=O)=O)ncc21 [Example 145, 2-[(6-cyclopentyl-2-methyl-3-oxo-2,6,8,10-tetrazabicyclo[5.4.0]undeca-8,10,12-trien-9-yl)amino]benzenesulfonamide] |
| > 6.52 |  | COc1cc(C(=O)NC2CCN(C)CC2)ccc1Nc1ncc2c(n1)N(C1CCOCC1)CCC(=O)N2C [Example 9, 3-Methoxy-4-[[6-methyl-2-(oxan-4-yl)-5-oxo-2,6,9,11-tetrazabicyclo[5.4.0]undeca-7,9,11-trien-10-yl]amino]-N-(1-methyl-4-piperidyl)benzamide] |
|  | > 6.52 | CCN1CC[C@@H](NC(=O)c2ccc(Nc3ncc4c(n3)N(C3CCCCC3)CC3(CC3)C(=O)N4C)c(OC)c2)C1 [Example 441, 4-(9′-cyclohexyl-5′-methyl-6′-oxo-5′,6′,8′,9′-tetrahydrospiro[cyclopropane-1,7′-pyrimido[5,4-b][1,4]diazepine]-2′-ylamino)-N-[(3R)-1-ethylpyrrolidin-3-yl]-3-methoxy-benzamide] |
|  | > 6.52 | CCN1CCC(NC(=O)c2cc(OC)c(Nc3ncc4c(n3)N(C3CCCCC3)CCC(=O)N4C)cc2F)CC1 [Example 422, 4-[(2-cyclohexyl-6-methyl-5-oxo-2,6,9,11-tetrazabicyclo[5.4.0]undeca-7,9,11-trien-10-yl)amino]-N-(1-ethyl-4-piperidyl)-2-fluoro-5-methoxy-benzamide] |
|  | > 6.00 | COc1cc(C(=O)O)ccc1Nc1ncc2c(n1)N(C1CCCC1)CC(C)(C)C(=O)N2C [Example 242, 4-[(2-cyclopentyl-4,4,6-trimethyl-5-oxo-2,6,9,11-tetrazabicyclo[5.4.0]undeca-7,9,11-trien-10-yl)amino]-3-methoxy-benzoic acid] |
|  | > 6.52 | COc1cc(C(=O)NCCCN(C)C)ccc1Nc1ncc2c(n1)N(C1CCCCC1)CCC(=O)N2C [Example 424, 4-[(2-cyclohexyl-6-methyl-5-oxo-2,6,9,11-tetrazabicyclo[5.4.0]undeca-7,9,11-trien-10-yl)amino]-N-(3-dimethylaminopropyl)-3-methoxy-benzamide] |
|  | > 6.00 | COc1cc(C(=O)NCC2(CN3CCCC3)CC2)c(F)cc1Nc1ncc2c(n1)N(C1CCCCC1)CCC(=O)N2C [Example 419, 4-[(2-cyclohexyl-6-methyl-5-oxo-2,6,9,11-tetrazabicyclo[5.4.0]undeca-7,9,11-trien-10-yl)amino]-2-fluoro-5-methoxy-N-[[1-(pyrrolidin-1-ylmethyl)cyclopropyl]methyl]benzamide] |
|  | > 6.00 | CCC1(CC)CN(C(C)C)c2nc(Nc3ccc(C(=O)NCC(C)(C)CN4CCCC4)cc3OC)ncc2N(C)C1=O [Example 309, 4-[(4,4-diethyl-6-methyl-5-oxo-2-propan-2-yl-2,6,9,11-tetrazabicyclo[5.4.0]undeca-7,9,11-trien-10-yl)amino]-N-(2,2-dimethyl-3-pyrrolidin-1-yl-propyl)-3-methoxy-benzamide] |

Reference: patent US7709471B2, “Compounds” (AstraZeneca AB, priority 2006, dated 2010)
